In US8785388B2, “TAT-BH3 methods for treating arthritis” (Saint Louis University, priority 2007, dated 2014):
Square brackets hold non-standard residues; d marks the D form. Peptide text beside a SMILES is read from it. Orn = NCCC[C@H](N)C(=O)O

Tests used:
[1] = test system: K/B×N serum transfer-induced arthritis; assay: K/B×N serum transfer-induced arthritis, ankle circumference (joint swelling); assay type: in vivo, mice; settings: for reduction of development of arthritis: day 4
Description: The seven-week-old progeny from homozygous KRN TCR transgenic mice (C57BL/6 background) crossed with non-obese diabetes (NOD) mice (K/B×N) were euthanized, peripheral blood was isolated, and serum were collected and pooled. One hundred and fifty microliters of K/B×N serum were intraperitoneally injected on each flank of 6-week old wt mice.
(§1) At each time point and prior to euthanasia, the degree of arthritis as indicated by joint swelling was quantitated by measuring two perpendicular diameters of the ankles using a caliper (Lange Caliper: Cambridge Scientific Industries, Cambridge Mass.). Joint circumference was calculated using the geometric formula of ellipse circumference (2πX √(a^2+b^2)/2). Following euthanasia, serum was isolated from peripheral blood by cardiac stick and ankle joints were removed. One of the ankle joints was fixed in 10% neutral buffered formalin for 24 hours, decalcified in EDTA-decalcification buffer for two weeks, embedded in paraffin, and sectioned. The other ankle joint was placed in liquid nitrogen, grounded into a fine powder by mortal and pestle, digested in protein lysis buffer ([…], 0.5% NP-40, 50 mM Tris, and 2 mM EDTA) in the presence of phosphatase and protease inhibitors, and homogenized on ice for 20 seconds. To examine any toxicity due to systemic delivery of TAT-Bim peptides, alkaline phosphatase (ALP), […] (AST), alanine aminotransferase (ALT), and blood urea nitrogen levels were measured.
Therefore, peptides to the BH3 domain of Bim were used that are fused to polycationic peptide derived from HIV-1 TAT. These peptides have shown to activate Bak and Bax, suppress Bcl-2 and Mcl-1, induce mitochondrial permeability, and release mitochondrial cytochrome c. Mice were intraperitoneally injected with K/B×N serum to induce the effector phase of inflammatory arthritis.

[2] = test system: K/B×N serum transfer-induced arthritis; assay: Histopathological scoring of ankle sections (H&E, safranin O/methyl green); assay type: in vivo, mice
Procedure: Paraffin embedded ankle or liver sections were stained with hematoxylin and eosin (H&E), Safranin O and methyl green. Histopathological scoring was performed and ankle sections were evaluated by examining at least 3 sections/ankle and 3 fields/section at 400× magnification. H&E ankle sections were scored on a 0-5 scale for inflammation, with 0=normal, 1=minimal infiltration, 2=mild infiltration, 3=moderate infiltration, […], mad 5=severe infiltration. Bone erosion was scored on a 0-5 scale by viewing H&E ankle sections, with 0=no or normal bone resorption, 1=small areas of resorption, 2=more numerous areas of resorption, 3=obvious resorption, 4=full thickness defects in the bone without distortion of the profile, 5=full thickness defects in the bone with distortion of the profile. H&E ankle stained sections were scored on a 0-5 scale for pannus formation, with 0=no pannus formation, 1=minimal pannus formation, 2=mild pannus formation, 3=moderate pannus formation, 4=marked pannus formation, and 5=severe pannus formation. H&E and Safranin 0 and methyl green sections were scored on a 0-5 scale for cartilage damage, with 0=no damage, 1-2=superficial cartilage destruction, 3-4=cartilage destruction to middle zone, 5=cartilage destruction to tide mark. Polymorphonuclear (PMN) leukocyte infiltration: 0=no PMNs, 1=rare scattered PMNs, 2=more frequent scattered PMNs, 3=small clusters of PMNs, 4=larger clusters of PMNs, mad 5=sheets of PMNs (abscess). Histopathological scoring was conducted on an Olympus BX40 microscope (1000×). Photographs were taken on a Nikon microscope equipped with the Nikon digital camera DMX 1200.
To accurately assess the degree of inflammation and destruction of cartilage and bone, ankle sections were examined using a histopathological scoring system on hematoxylin and eosin (H& E) or safranin O-methyl green stained ankle sections.

[3] = test system: macrophages in arthritic joints; assay: Macrophage numbers in ankle sections stained for F4/80 antigen; assay type: in vivo, mice
Description: FIG. 4A is representative photomicrograph of ankle sections stained for F4/80 antigen from saline- and BH3-peptide treated mice.
TAT-BH3 peptides treatment reduces the numbers of myeloid cells in arthritic joints. Neutrophils and macrophages are required for the development of K/B×N serum transfer induced arthritis 40-42. To this end, the numbers of polymorphonuclear cell and macrophages in saline and BH3 peptide arthritic mice were quantified. […] The milieu of the RA joint is crucial for the initiation and the perpetuation of inflammatory arthritis. Previous studies have shown that mice lacking Bim display increased levels of pro-inflammatory factors in the joint that is associated with increased numbers of neutrophils and macrophages and more articular destruction.

[4] = test system: IL-1β, TNFα, MCP-1, KC; assay: Circulating cytokine levels in serum; assay type: in vivo, mice; settings: between saline, TAT-inactive BH3 and TAT-BH3 groups
Procedure: as §1
TAT-BH3 peptides treatment reduces the numbers of myeloid cells in arthritic joints. […] To this end, the numbers of polymorphonuclear cell and macrophages in saline and BH3 peptide arthritic mice were quantified. […]

[5] = test system: mature neutrophils in bone marrow; assay: Bone marrow neutrophil numbers (flow cytometry); assay type: in vivo, mice; settings: as compared to saline and TAT-inactive BH3
Procedure: Peripheral blood and bone marrow were isolated from mice following euthanasia. Total leukocyte numbers were determined using an automated hematology analyzer ABX Pentra 60 (Diamond Diagnostics, Inc, Holliston, Mass.). The red blood cells in peripheral blood were lysed and the remaining cells were fixed with BD FACS lysing solution (BD Biosciences, Pharmingen) following incubation with antibodies. Bone marrow cells were isolated by flushing Dulbecco's Modified Eagle Medium (DMEM) (Gibco, Grand Island, N.Y.) through the tibias and red blood cells were lysed with BD PharM Lyse (BD Biosciences, Pharmingen) prior to incubation with antibodies. Cells with incubated with Fc Block (BD Biosciences, Pharmingen) then stained with fluorochrome conjugated antibodies to CD45, CD11b, Gr-1, CD62L, Ly-6C, Ly-6G, CD31 (BD Biosciences, Pharmingen) or isotype control antibodies for 30 minutes. Cells were acquired on a BD LSRII (BD Biosciences, Pharmingen) using Diva Software at the Saint Louis University Core Flow Cytometry Facility. All analysis was performed using FlowJo software (Tree Star Inc.).
TAT-BH3 peptides decrease the number of neutrophils in circulation and in bone marrow. We have shown that numbers of neutrophils and macrophages are reduced in the joints of mice treated with TAT-BH3 peptides.

[6] = molecular target: Mcl-1 (Homo sapiens, UniProt Q07820); assay: Affinity for Mcl-1; assay type: binding; settings: statement without data
Sequence of Mcl-1 (Q07820 whole entry, species assumed): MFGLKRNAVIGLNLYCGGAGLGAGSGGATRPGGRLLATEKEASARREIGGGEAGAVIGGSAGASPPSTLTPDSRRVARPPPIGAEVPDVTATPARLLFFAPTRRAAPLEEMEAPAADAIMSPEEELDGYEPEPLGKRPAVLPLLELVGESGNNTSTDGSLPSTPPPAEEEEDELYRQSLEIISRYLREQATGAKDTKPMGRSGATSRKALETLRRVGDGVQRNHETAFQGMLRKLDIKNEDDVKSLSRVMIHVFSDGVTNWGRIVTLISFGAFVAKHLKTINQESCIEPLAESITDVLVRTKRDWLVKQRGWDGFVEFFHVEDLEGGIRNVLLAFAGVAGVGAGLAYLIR

[7] = as compared to saline or TAT-inactive BH3
[8] = as compared to TAT-inactive BH3

CC[C@H](C)[C@H](NC(=O)[C@H](CCCNC(=N)N)NC(=O)[C@H](CCCNC(=N)N)NC(=O)[C@H](CC(C)C)NC(=O)[C@H](CCC(=O)O)NC(=O)[C@H](CCC(N)=O)NC(=O)[C@H](C)NC(=O)[C@@H](NC(=O)[C@H](Cc1c[nH]c2ccccc12)NC(=O)[C@@H](NC(=O)[C@H](CCC(=O)O)NC(=O)[C@H](CCCNC(=N)N)NC(=O)[C@H](CCCNC(=N)N)NC(=O)[C@H](CCCNC(=N)N)NC(=O)[C@H](CCCN)NC(=O)[C@H](CCCNC(=N)N)NC(=O)[C@H](CCCNC(=N)N)NC(=O)[C@H](CCCCN)NC(=O)[C@H](CCCCN)NC(=O)[C@H](CCCNC(=N)N)NC(C)=O)[C@@H](C)CC)[C@@H](C)CC)C(=O)NCC(=O)N[C@@H](CC(=O)O)C(=O)N[C@@H](CCC(=O)O)C(=O)N[C@@H](Cc1ccccc1)C(=O)N[C@@H](CC(N)=O)C(=O)N[C@@H](C)C(=O)N[C@@H](Cc1ccc(O)cc1)C(=O)N[C@@H](Cc1ccc(O)cc1)C(=O)N[C@@H](C)C(=O)N[C@@H](CCCNC(=N)N)C(=O)O [TAT-BH3] (Ac-RKKRR[Orn]RRREIWIAQELRRIGDEFNAYYAR-OH)
change in ankle circumference ([1]; day 2 after K/B×N serum, 2 mg/kg i.p.): 0.1 mm | reduction of development of arthritis ([1]; as compared to TAT-inactive BH3 peptide): 72% | reduction of development of arthritis ([1]; as compared to saline): 80% | reduction in PMN score ([2]; as compared to TAT-inactive BH3 or saline): 69% | decrease in bone erosion score [2, 7]: 71% | reduction in inflammation [2, 7]: 72% | suppression of pannus formation [2, 7]: 79% | average number of macrophages in the synovial lining [3, 8]: no statistical difference | decrease in numbers of macrophages within the pannus region [3, 8]: 68% | decrease in numbers of macrophages within the pannus region ([3]; as compared to saline): 77% | circulating levels of IL-1β, TNFα, MCP-1, and KC in serum [4]: no differences | decrease in numbers of mature neutrophils in bone marrow [5]: 50% | affinity for Mcl-1 [6]: high affinity
